Reference: patent US11447522B2, “Potent soft anti-inflammatory corticosteroid compounds and uses thereof” (Bodor Laboratories, Inc., priority 2017, dated 2022)
Read-outs that look alike come from different tables or passages of the source.

Columns and labels:
[1] = system: IL-1β from the human monocyte cell line THP-1; assay: IL-1β production of stimulated THP.1 cells; type: cell-based
Method: (§1) Commercially available human cytokine ELISA sets were used. TNF-α and GM-CSF sets were purchased from BD Pharmingen, San Diego, Calif., USA) and the IL-1β set was obtained from R&D Systems (Minneapolis, Minn., USA). ELISA was performed according to the manufacturer's protocol. Cell-free supernatants were tested in duplicate. Detection limits were 7.8 pg/ml for TNF-α, 4.7 pg/ml for GM-CSF, and 3.9 pg/ml for IL-1β. Results were expressed as the mean percentage of inhibition. IC50 values for test compounds were calculated by linear regression.
THP.1 cells (human monocytic cell line: American Type Culture Collection. Rockville, Md., USA) were maintained in RPMI-1640 medium, supplemented with 10% FCS, 5×10^−5 M 2-merkapto-ethanol, 2 mM glutamine and antibiotics, and were split in every 3rd days. To examine the effect of test compounds 2×10^6 cells/well (24 well plates in 1 ml/well volume) were stimulated with 1 μg/ml LPS and 25 μg/ml silica for IL-1β production as described previously (Németh et al. 1995). The test compounds were dissolved in RPMI-1640 medium or the medium containing 0.01% DMSO. Two parallel cell cultures per treatment groups were run in three independent experiments. IL-1β levels in cell-free supernatants were determined by ELISA.

[2] = system: TNF α-production of LPS-stimulated blood cells; assay: TNF-α production of lipopolysaccharide-stimulated human blood; type: cell-based
Method: (§2) The in vitro anti-inflammatory effect of ED and its analogs was assessed using LPS-induced TNF α-release under various conditions (diluted or undiluted whole human blood, preincubation with sera) to determine the intrinsic anti-inflammatory activity and systemic biological stability of the various compounds.
as §1
Peripheral blood from healthy donors was collected aseptically into sterile heparinized (Vacutainer™) tubes. Whole blood samples from each individual were parallel used both undiluted and after 5-fold dilution with RPMI-1640 medium in every experiment. Blood samples were distributed into 24-well plates and incubated with serial concentrations of the test compounds and 1 μg/ml lipopolysaccharide for 24 h at 37° C. in a CO2 thermostat. Controls were treated with lipopolysaccharide and the vehicle (PBS or 0.01% dimethyl sulfoxide in PBS). After incubation, cell-free supernatants were separated by centrifugation (1000 g for 10 minutes) and stored at −20° C. until determination of the amount of TNF-α. Test compounds were examined in blood samples from five different individuals. Two parallel cultures per treatments were run.

[3] = system: mitogen-induced proliferation of PBMC; assay: Proliferation of lectin-stimulated peripheral mononuclear cells; type: cell-based, human; details: read-out: Prolif.**: Inhibition of mitogen-induced proliferation of PBMC
Method: Mononuclear cells from heparinized peripheral blood of healthy donors were isolated on suitable gradient (Optiprep solution, 1.077 g/ml). Serial dilutions of the test compounds (ranging from 2×10^−6 to 2×10^−8 M) were made in 100 μl of medium per well of sterile round-bottomed 96-well microtiter plate. Control wells contained culture medium only. 100 μl of cell suspension (10^6 cells/ml), containing concanavalin A (2 μg/ml) was added to each well. […] All cultures were done in triplicate. Microtiter plates were incubated for 72 h at 37° C., in 5% CO2 containing humidified atmosphere. For the last 18 h of incubation, [^3H]thymidine was added to the cells cultures, at 0.1 μCi/well final concentration. At the end of the incubation, cells were harvested to glass microfiber filter (Whatman G/F) and associated radioactivity was determined by liquid scintillation.

[4] = system: ovalbumin sensitized and challenged Brown Norway rats; assay: Airway changes of ovalbumin sensitized and challenged Brown Norway rats, intratracheal administration; type: in vivo; details: for AHR (airways hyperreactivity) ED50: relative response to maximal acetylcholine dose
TNF-α production = details: cited from earlier work
[5] = system: TNF-α production of LPS-stimulated whole blood cells; assay: Stability: inhibition of TNF-α production with or without preincubation of the compounds in human plasma/serum; type: cell-based
Method: as §2, §1
Mononuclear cells from peripheral blood of healthy donors were isolated on Ficoll-gradient. One million cells in 0.9 ml of RPMI 1640 medium were distributed into 24-well plates and serial concentrations of the test compounds, made in fresh human serum either instantly or 18 h previously, were added (0.05 ml) together with the lipopolysaccharide (0.05 ml; 1 μg/ml final concentration). Preincubation of the compounds with serum was carried out at 37° C. Processing of the cultures was done as described above.

receptor = details: scale where dexamethasone is 100; cited from earlier work
[6] = Stability in the presence of human plasma (HPLC/MS/MS); type: in vitro ADME; details: 37° C.
Method: Etiprednol dicloacetate (BNP-166) was added to freshly prepared human plasma of healthy donors at a concentration of 5 ng/ml, and were incubated at 37° C. for different intervals. After incubation the amount of the original compound (ethyl-17α-dichloroacetoxy-11β-hydroxyandostra-1,4-diene-3-one-17β-carboxylate), and one of its main metabolite, M-OH (17α,11β-dihydroxyandostra-1,4-diene-3-one-17β-carboxylate) were determined using an HPLC/MS/MS method. In brief: Fluocinolone acetonide served as internal standard (20 ng/ml), samples were extracted with a liquid-liquid extraction on Extrelut® columns, and were separated on a Purospher STAR 30×2 mm (3 μm) reversed phase column at a flow rate of 0.3 ml/min, using a linear gradient with a mobile phase system containing acetonitrile, water and acetic acid. Determination were performed on a triple quadrupole mass spectrometer (Perkin-Elmer SCIEX API 2000) supplied with an electrospray interface operated in the positive ionization mode. The multiple ion monitoring, parent→daughter ion transitions of 485.2→265.2, 375.2→265.2 and 495.2→337.2 were used for the quantification of etiprednol dicloacetate, its M-OH metabolite and for the internal standard respectively. Results are expressed as peak areas normalized to the internal control. Stability of the selected ED analogs (10, 11, 13, 17, 21, 25) were determined as described above for ED (3).

[7] = diluted blood 1:5, read-out: TNFα* a: Inhibition of TNF α-production of LPS-stimulated blood cells
[8] = undiluted blood, read-out: TNFα* b: Inhibition of TNF α-production of LPS-stimulated blood cells
[9] = intratracheal, 2 hours prior challenge
[10] = intratracheal, 2 hours prior challenge, minimal statistically significantly effective dose
[11] = non-preincubated in human plasma, read-out: Stability*** c: Inhibition of TNF-α production of LPS-stimulated whole blood cells
[12] = preincubated overnight in human plasma, read-out: Stability*** d: Inhibition of TNF-α production of LPS-stimulated whole blood cells

In the case of `CCOC(=O)[C@@]1(OC(=O)C(Cl)Cl)CC[C@H]2[C@@H]3CCC4=CC(=O)C=C[C@]4(C)[C@H]3[C@@H](O)C[C@@]21C` [Compound 3, Ethyl 17α-dichloroacetoxy-11β-hydroxyandrosta-1,4-diene-3-one-17β-carboxylate], the “inhibition of the liberation of IL-1β” value [1] is reported as “significantly inhibited”, the IC50 [2, 7] is reported as 27 nM and the IC50 [2, 8] is reported as 103 nM. For the same compound, the IC50 [3] was 10 nM, the “Edema formation ED50” value [4, 9] was 2.9 µg/kg and the “Eosinophilia BALF ED50” value [4, 9] was no more than 0.1 µg/kg. For the same compound, the “Eosinophilia Peribronchial ED50” value [4, 9] was 0.62 µg/kg, the “Eosinophilia Perivascular ED50” value [4, 9] was greater than 100 µg/kg and the “Mucus production ED50” value [4, 9] was 13.8 µg/kg. The “Mucus production, second line (dose type not given)” value [4, 9] was 0.1 µg/kg, the “AHR (airways hyperreactivity) MSED” value [4, 10] was “≈1.0 μg/kg” and the “Edema formation MSED” value [4, 10] was 0.1 µg/kg. For the same compound, the “Eosinophilia BALF MSED” value [4, 10] was 0.1 µg/kg, the “Eosinophilia Peribronchial MSED” value [4, 10] was 0.1 µg/kg and the “Eosinophilia Perivascular MSED” value [4, 10] was 1.0 µg/kg. For the same compound, the “AHR (airways hyperreactivity) ED50” value [4, 9] was “≈1.0 μg/kg”, the “loss of activity during incubation” value (TNF-α production; five days) was 100 fold and the “loss of activity during incubation” value (TNF-α production; two days) was “five-fold”. The IC50 [5, 11] was 73 nM, the IC50 [5, 12] was 2700 nM and the “relative receptor binding activity (RRBA)” value (receptor) was roughly 200.

In the case of `CCOC(=O)O[C@]1(C(=O)OCCl)CCC2C3CCC4=CC(=O)C=CC4(C)C3[C@@H](O)CC21C` (stereo partly drawn) [LE, chloromethyl 17α-ethoxycarbonyloxy-11β-hydroxyandrosta-1,4-dien-3-one-17β-carboxylate], the “relative receptor binding activity (RRBA)” value (receptor) is listed as 160.

For `C[C@@H]1C[C@H]2[C@@H]3C[C@H](F)C4=CC(=O)C=C[C@]4(C)[C@@]3(F)[C@@H](O)C[C@]2(C)[C@@]1(OC(=O)C(Cl)Cl)C(=O)SCF` [Compound 25, S-Fluoromethyl 17α-dichloroacetoxy-6α,9α-difluoro-11β-hydroxy-16α-methyl-3-oxoandrosta-1,4-diene-17β-carbothioate], the “stability in the presence of human plasma” value [6] was “particularly stable”, the IC50 [2, 7] was 2 nM and the IC50 [2, 8] was 3 nM. For the same compound, the IC50 [3] was 0.1 nM, the “overall in vivo activity compared with the parent steroid” value ([4]; Table 2 parameters) was “overall superior to FLU” and the “Edema formation ED50” value [4, 9] was less than 1.0 µg/kg. The “Eosinophilia BALF ED50” value [4, 9] was 16.1 µg/kg, the “Eosinophilia Perivascular ED50” value [4, 9] was 83.8 µg/kg and the “Mucus production ED50” value [4, 9] was 7.42 µg/kg. The “Mucus production, second line (dose type not given)” value [4, 9] was 100 µg/kg, the “BALF protein ED50” value ([4]; intratracheal, 2 hours prior challenge, broncho-alveolar lavage fluid) was 0.64 µg/kg and the “AHR (airways hyperreactivity) MSED” value [4, 10] was 10 µg/kg. For the same compound, the “BALF protein MSED” value [4, 10] was 100 µg/kg, the “Edema formation MSED” value [4, 10] was 1.0 µg/kg and the “Eosinophilia BALF MSED” value [4, 10] was 1.0 µg/kg. For the same compound, the “Eosinophilia Perivascular MSED” value [4, 10] was 1.0 µg/kg, the “AHR (airways hyperreactivity) ED50” value [4, 9] was 3.75 µg/kg and the IC50 [5, 11] was 1 nM. For the same compound, the IC50 [5, 12] was 87 nM.
